# Test results as given in patent US20190185461A1, “B[…] B2-RECEPTOR AGONIST ACTIVITY AND M3-RECEPTOR ANTAGONIST ACTIVITY AND MEDICAL USE THEREOF” (Sichuan Haisco Pharmaceutical Co., Ltd., priority 2015, published 2019).
# Key:
# [1] = target: T1, human muscarine receptor M3 (hM3) (Homo sapiens, UniProt P20309); experiment: Inhibitory activity against human muscarine receptor M3 (aequorin luminescence, CHO cells, acetylcholine challenge); assay type: cell-based; conditions: IC50 for hM3 receptor, CHO cells stably expressing hM3 and apo-Aequorin; acetylcholine chloride 112.92 nM; luminescence over 20 seconds
# T1 construct: host or cells: CHO cells
# T1 sequence (P20309 whole entry): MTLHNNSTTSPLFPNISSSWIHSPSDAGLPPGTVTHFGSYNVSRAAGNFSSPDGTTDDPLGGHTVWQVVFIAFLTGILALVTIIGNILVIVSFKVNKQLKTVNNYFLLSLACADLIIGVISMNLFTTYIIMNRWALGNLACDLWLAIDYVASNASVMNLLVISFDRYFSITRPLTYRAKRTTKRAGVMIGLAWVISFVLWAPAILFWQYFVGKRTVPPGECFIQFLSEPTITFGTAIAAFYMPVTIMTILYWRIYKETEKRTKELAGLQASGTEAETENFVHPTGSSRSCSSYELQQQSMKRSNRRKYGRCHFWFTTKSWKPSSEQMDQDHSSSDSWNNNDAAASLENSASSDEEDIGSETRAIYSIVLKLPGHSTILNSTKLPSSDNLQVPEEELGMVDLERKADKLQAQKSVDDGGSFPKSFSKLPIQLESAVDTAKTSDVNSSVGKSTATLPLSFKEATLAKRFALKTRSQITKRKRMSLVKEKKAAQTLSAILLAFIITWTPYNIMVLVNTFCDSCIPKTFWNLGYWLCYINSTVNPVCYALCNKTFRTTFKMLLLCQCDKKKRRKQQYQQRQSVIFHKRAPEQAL
# Method: CHO cells (PerkinElmer, ES-212-AF) that stably express human muscarine receptor M3 (hM3) and apo-Aequorin were cultured at 37° C., 5% CO2 in Ham's F12 media (Invitrogen 12500-062) containing 10% fetal bovine serum (FBS) (Gibico 10099-141), 400 μg/mL G418 (sigma G5013) and 250 μg/mL Zeocin (Invivogen ant-zn-5p), until a confluency of 90% to 100% was reached. Cells were separated by rinsing with PBS/5 mM EDTA, collected by centrifugation, re-suspended in phenol red-free Ham's F12 media (Invitrogen 12500-062) containing 0.1 BSA (BOVOGEN BSAS 100), and counted. The cell concentration was adjusted to 1×10^6 cells/ml. 15 ml of the cell suspension was added to a 50-ml centrifuge tube, to which Coelenterazine-h (Promega 52011) was added to a final concentration of 5 μM. The tube was wrapped with a tin foil to shade light, and incubated on a rotary shaker at 20° C. for 4 hours. The cells were diluted with a phenol red-free/0.1% BSA Ham's F12 medium to a final concentration of 5.0×10^5 cells/ml, placed on a rotary shaker in low speed rotation, and incubated at room temperature for at least 1 hour. The compounds of the Examples were formulated with DMSO into 10 mM stock solutions, diluted in series with a phenol red-free/0.1% BSA Ham's F12 media (log(M): −7, −8, −9, −10, −11), and added to a 96-well plate at 50 μl/well. 50 μl cell suspension was further added to each well (25,000 cells/well) and incubated for 15 min at room temperature. The 96-well plate was placed in a microplate reader (Perkin Elmer, Envision), and a 50 μl solution of acetylcholine chloride (Sigma A6625) was added to each well at a concentration of 112.92 nM (hM3) with a microplate reader sample injector. The luminescence was recorded over 20 seconds, and IC50 values were calculated and analyzed by Origin 7.5.
# [2] = target: T2, human β2-adrenergic receptor (hβ2) (Homo sapiens, UniProt P07550); experiment: Agonist activity on human β2-adrenergic receptor (LANCE Ultra cAMP Assay, CHO cells); assay type: cell-based
# T2 construct: host or cells: CHO cells
# T2 sequence (P07550 whole entry): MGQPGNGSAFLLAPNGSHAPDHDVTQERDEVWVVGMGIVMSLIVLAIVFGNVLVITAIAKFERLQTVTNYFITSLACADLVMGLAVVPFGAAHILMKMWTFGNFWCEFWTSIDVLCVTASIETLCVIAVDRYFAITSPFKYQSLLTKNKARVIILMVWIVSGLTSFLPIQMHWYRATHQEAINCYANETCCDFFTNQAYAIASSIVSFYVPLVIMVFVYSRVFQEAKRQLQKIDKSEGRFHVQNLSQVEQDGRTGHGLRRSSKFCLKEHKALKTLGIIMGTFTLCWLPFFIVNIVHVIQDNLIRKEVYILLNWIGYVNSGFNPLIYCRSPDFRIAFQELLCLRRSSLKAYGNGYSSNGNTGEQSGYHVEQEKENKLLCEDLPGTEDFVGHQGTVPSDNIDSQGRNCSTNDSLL
# Method: The agonist activity of the compounds of the Examples on the human adrenergic receptor was measured by the LANCE Ultra cAMP Assay.
# CHO cells (PerkinElmer, ES-034-AF) that stably express human adrenergic receptor (hβ2) were cultured at 37° C., 5% CO2 in MEM-alpha media (Invitrogen 12561-056) containing 10% fetal bovine serum (FBS) (Gibico 10099-141) and 250 μg/ml Zeocin (InvivoGen ant-zn-5p), until a confluency of 90% to 100% was reached. Then the agonism on cAMP was tested by using a LANCE Ultra cAMP Assay kit (PerkinElmer TRF0263). Cells were separated with PBS/5 mM EDTA, collected by centrifugation, re-suspended in Stimulation Buffer (1×HBSS, 5 mM HEPES, 0.5 mM IBMX, 0.1% BSA, pH7.4), and adjusted to a cell concentration of 6×10^5 cells/ml. The compounds of the Examples were formulated with DMSO into 10 mM stock solutions, diluted in series with Stimulation Buffer, and added to a 384-well plate at 5 μl/well. 5 μl cell suspension was further added to each well (3,000 cells/well), incubated for 30 min at room temperature, then 5 μl of a 4×Eu-cAMP trace working solution was added to each well, and then 5 μl of a 4× Ulight-anti-cAMP working solution was added to each well, followed by incubation at room temperature for 1 hour. The 384-well plate was detected for TR-FRET with a microplate reader (Perkin Elmer, Envision), and EC50 values were calculated and analyzed by Origin 7.5.
SMILES,IC50 [1] [nM],EC50 [2] [nM]
"O=C(OC1CC2(CCN(CCCn3nnc4cc(CNC[C@H](O)c5ccc(O)c6[nH]c(=O)ccc56)ccc43)CC2)C1)C(O)(c1ccccc1)C1CCCC1 (single isomer, unassigned) [Isomer 1 of Compound 4]",2.36,
"O=C(OC1CC2(CCN(CCCn3nnc4cc(CNC[C@H](O)c5ccc(O)c6[nH]c(=O)ccc56)ccc43)CC2)C1)C(O)(c1cccs1)C1CCCC1 (single isomer, unassigned) [Isomer 1 of Compound 9, ditrifluoroacetic acid]",2.47,
"O=C(OC1CC2(CCN(CCCn3nnc4cc(CNC[C@H](O)c5ccc(O)c6[nH]c(=O)ccc56)ccc43)CC2)C1)C(O)(c1ccccc1)C1CCCC1 (single isomer, unassigned) [Isomer 2 of Compound 4]",1.77,
"O=C(OC1CC2(CCN(CCCn3nnc4cc(CNC[C@H](O)c5ccc(O)c6[nH]c(=O)ccc56)ccc43)CC2)C1)C(O)(c1cccs1)C1CCCC1 (single isomer, unassigned) [Isomer 2 of Compound 9, ditrifluoroacetic acid]",2.76,
"O=C(OC1CC2(CCN(CCCn3nnc4cc(CNC[C@H](O)c5ccc(O)c6[nH]c(=O)ccc56)ccc43)CC2)C1)C(O)(c1cccs1)c1cccs1 [Compound 1, [7-[3-[5-[[[(2R)-2-hydroxy-2-(8-hydroxy-2-oxo-1H-quinolin-5-yl)ethyl]amino]methyl]benzotriazol-1-yl]propyl]-7-azaspiro[3.5]nonan-2-yl] 2-hydroxy-2,2-bis(2-thienyl)acetate]",0.43,4.45
"O=C1COc2c([C@@H](O)CNCc3ccc4c(c3)nnn4CCCN3CCC4(CC3)CC(OC(=O)C(O)(c3cccs3)c3cccs3)C4)ccc(O)c2N1 [Compound 2, [7-[3-[5-[[[(2R)-2-hydroxy-2-(5-hydroxy-3-oxo-4H-1,4-benzoxazin-8-yl)ethyl]amino]methyl]benzotriazol-1-yl]propyl]-7-azaspiro[3.5]nonan-2-yl] 2-hydroxy-2,2-bis(2-thienyl)acetate; ditrifluoroacetic acid]",0.59,1.3
"O=CNc1cc([C@@H](O)CNCc2ccc3c(c2)nnn3CCCN2CCC3(CC2)CC(OC(=O)C(O)(c2cccs2)c2cccs2)C3)ccc1O [Compound 3, [7-[3-[5-[[[(2R)-2-(3-formamido-4-hydroxy-phenyl)-2-hydroxy-ethyl]amino]methyl]benzotriazol-1-yl]propyl]-7-azaspiro[3.5]nonan-2-yl] 2-hydroxy-2,2-bis(2-thienyl)acetate; ditrifluoroacetic acid]",0.22,
"O=C(OC1CC2(CCN(CCCn3nnc4cc(CNC[C@H](O)c5ccc(O)c6[nH]c(=O)ccc56)ccc43)CC2)C1)C(O)(c1ccccc1)C1CCCC1 (stereo partly drawn) [Compound 4, [7-[3-[5-[[[(2R)-2-hydroxy-2-(8-hydroxy-2-oxo-1H-quinolin-5-yl)ethyl]amino]methyl]benzotriazol-1-yl]propyl]-7-azaspiro[3.5]nonan-2-yl] 2-cyclopentyl-2-hydroxy-2-phenyl-acetate; ditrifluoroacetic acid]",2.46,
"O=C(OC1CC2(CCN(CCCn3c(=O)sc4cc(CNC[C@H](O)c5ccc(O)c6[nH]c(=O)ccc56)ccc43)CC2)C1)C(O)(c1cccs1)c1cccs1 [Compound 7, [7-[3-[6-[[[(2R)-2-hydroxy-2-(8-hydroxy-2-oxo-1H-quinolin-5-yl)ethyl]amino]methyl]-2-oxo-1,3-benzothiazol-3-yl]propyl]-7-azaspiro[3.5]nonan-2-yl] 2-hydroxy-2,2-bis(2-thienyl)acetate; ditrifluoroacetic acid]",1.29,4
"O=C(OC1CC2(CCN(CCCn3c(=O)oc4cc(CNC[C@H](O)c5ccc(O)c6[nH]c(=O)ccc56)ccc43)CC2)C1)C(O)(c1cccs1)c1cccs1 [Compound 8, [7-[3-[6-[[[(2R)-2-hydroxy-2-(8-hydroxy-2-oxo-1H-quinolin-5-yl)ethyl]amino]methyl]-2-oxo-1,3-benzoxazol-3-yl]propyl]-7-azaspiro[3.5]nonan-2-yl] 2-hydroxy-2,2-bis(2-thienyl)acetate; ditrifluoroacetic acid]",0.65,6.13
"CN(CCCn1nnc2cc(CNC[C@H](O)c3ccc(O)c4[nH]c(=O)ccc34)ccc21)C(=O)CCN1CCC2(CC1)CC(OC(=O)C(O)(c1cccs1)c1cccs1)C2 [Compound 11, [7-[3-[3-[5-[[[(2R)-2-hydroxy-2-(8-hydroxy-2-oxo-1H-quinolin-5-yl)ethyl]amino]methyl]benzotriazol-1-yl]propyl-methyl-amino]-3-oxo-propyl]-7-azaspiro[3.5]nonan-2-yl] 2-hydroxy-2,2-bis(2-thienyl)acetate; ditrifluoroacetic acid]",0.46,
"O=C(OC1CC2(CCN(CCCn3nnc4cc(CNC[C@H](O)c5ccc(O)c6[nH]c(=O)sc56)ccc43)CC2)C1)C(O)(c1cccs1)c1cccs1 [Compound 12, [7-[3-[5-[[[(2R)-2-hydroxy-2-(4-hydroxy-2-oxo-3H-1,3-benzothiazol-7-yl)ethyl]amino]methyl]benzotriazol-1-yl]propyl]-7-azaspiro[3.5]nonan-2-yl] 2-hydroxy-2,2-bis(2-thienyl)acetate; ditrifluoroacetic acid]",0.52,0.47
"O=C(OC1CC2(CCN(CCCn3nnc4cc(CNC[C@H](O)c5ccc(O)c(CO)c5)ccc43)CC2)C1)C(O)(c1cccs1)c1cccs1 [Compound 13, [7-[3-[5-[[[(2R)-2-hydroxy-2-[4-hydroxy-3-(hydroxymethyl)phenyl]ethyl]amino]methyl]benzotriazol-1-yl]propyl]-7-azaspiro[3.5]nonan-2-yl] 2-hydroxy-2,2-bis(2-thienyl)acetate; ditrifluoroacetic acid]",0.31,
